# Laboratory results as given in US20160243271A1, “Essential Oils Or Volatile Organics Thereof Electrospun In Chitosan Nanofiber Mats” (UNIVERSITY OF MASSACHUSETTS, priority 2013, published 2016).
# Assays:
# P. aeruginosa S20930 = experiment: Viability loss of P. aeruginosa, PI/DAPI fluorescence assay; assay type: cell-based, Pseudomonas aeruginosa
# Experimental: (§1) The model organisms were Escherichia coli S20918 (E. coli) and P. aeruginosa S20930 (P. aeruginosa), purchased from Thermo Fisher Scientific, Waltham, Mass. The bacteria were grown in LB at 37.0 and harvested at a concentration of 10^8 cells/mL. To remove residual macromolecules and other growth medium constituents, cells were washed twice and then resuspended in an isotonic solution (0.9% NaCl, pH 5.7). This isotonic solution was used for E. coli and P. aeruginosa loss of viability studies.
# Viability loss of P. aeruginosa in contact with chitosan/CA(0, 0.5, and 5.0%)/PEO nanofiber mats was determined using a previously described fluorescence assay.^33 Electrospun mats (20 mm×10 mm) were placed at the bottom of 35 mm×10 mm petri dishes (Becton, Dickinson & Co., Franklin Lakes, N.J.) to which the cells (10^7 cells/mL) resuspended in an isotonic solution were added and diluted by a factor of 2. The cells were incubated at 37° C. for various times (30, 90, and 180 min). […] Fluorescence images were acquired to detect the cells utilizing an epifluorescence microscope (Olympus) with a Chroma cube filter. […] Dead cells and the total number of cells were determined by direct cell counting. […] Throughout the Results and Discussion section, all statistical differences were determined using an unpaired t-test with values of p≦0.05 considered to be statistically significant.
# Escherichia coli S20918 = experiment: Viability loss of E. coli, modified ASTM E2149-01 shake flask method; assay type: cell-based; details: 3 mM CA solution
# Experimental: as §1
# The viability loss of E. coli in contact with chitosan/CA(0, 0.5, and 5.0%)/PEO nanofiber mats was assayed according to a modified ASTM E2149-01 shake flask method.^30 In parallel to each experiment (i) a blank control (no nanofiber mat) and (ii) an MIC control of CA for E. coli (3 mM CA in solution) were employed.^19 Electrospun mats (10 mm×20 mm) were placed into culture tubes (16 mm×125 mm) along with 4 mL suspensions of E. coli or P. aeruginosa (5×10^6 cells/mL) in an isotonic solution (0.9% NaCl, pH 5.7). The suspensions were shaken at 200 rpm in an orbital shaker maintained at 37° C. At 30, 90, and 180 minutes, 100 μL were pipetted out from the tubes and serial dilutions were plated onto LB plates using the spread plate method.^30-32 After 24 hr incubation on agar plates, the number of viable bacteria was counted. The number of viable cells was multiplied by the dilution factor and expressed as the mean colony forming unit (CFU) per mL. The percent reduction of bacteria resulting from contact with the nanofiber mats was determined using Equation 1 where A represents the mean log10 density of bacteria for the flask containing the treated substrate after the specified contact time and B represents the untreated substrate after the specified contact time.
# E. coli = details: CA in solution; cited from earlier work
compound,measurement,setting,value
"O=CC=Cc1ccccc1 [CA, cinnamaldehyde]","P. aeruginosa inactivation, statistical comparison",P. aeruginosa S20930; after 30 min,statistically equivalent
same,"P. aeruginosa inactivation, statistical comparison",P. aeruginosa S20930; at 90 min,statistically equivalent level as the chitosan/CA(0.5 and 5.0%)/PEO nanofiber mats
same,E. coli inactivation compared with blank control,Escherichia coli S20918; no nanofiber mat,statistically inactivated more E. coli than the blank control
same,antibacterial activity against E. coli compared with nanofiber mats,Escherichia coli S20918; after 30 and 180 min,statistically lower level of antibacterial activity
same,antibacterial activity against E. coli compared with nanofiber mats,Escherichia coli S20918; at 90 min,statistically equivalent to the chitosan/CA(0.5%)/PEO nanofiber mats
same,MIC,E. coli,3000 µM
